Our source for the GHS category values is the CATMoS acute toxicity set (Mansouri et al. 2021).

The nature of the series: GHS categories as the set defines them, by LD50: 1 up to 5, 2 up to 50, 3 up to 300, 4 up to 2000, 5 above 2000 mg/kg. The settings on record: rat; in vivo; po.

`O=S(=O)(c1ccc(Cl)cc1)c1ccc(Cl)cc1`: the GHS category turned out to be 5.
The same measure for `O=C(O)c1c(Cl)c(Cl)c(C(=O)O)c(Cl)c1Cl`: 5; for `O=C(O)c1cc(O)ccc1Nc1cccc(C(F)(F)F)c1`: 4; for `CCC(=O)OCC(C)(C)OC(C)C1CCCC(C)(C)C1` (stereo not given): 5.
In the case of `Cc1cc2cccnc2n(-c2cccc(C(F)(F)F)c2)c1=O` it was 3; in that of `CC(=O)NCc1c(I)c(NC(C)=O)c(I)c(C(=O)O)c1I`, 5; in that of `O=NNC1=NCCN1Cc1ccc(Cl)nc1`, 5.
The same measure for `O=C(O)c1cccc2cccc(-c3cccc4cccc(C(=O)O)c34)c12`: 5; for `CC(C)=CCN(CC=C(C)C)CCC(C#N)(c1ccc2ccccc2c1)C(C)C` (stereo not given): 4.
For `O=S(O)CO`, the GHS category is listed as 5.
Compound `CC1CCC2(OC1)OC1CC3C4CC=C5CC(O)CCC5(C)C4CCC3(C)C1C2C` (stereo not given) gave a GHS category of 5.
The compound `C=CC(C)(CCC=C(C)CC)OC(C)=O` (stereo not given) showed a GHS category of 5.
The same measure for `CCCCCCCCCCCCCCCCN(C)C`: 5; for `CCCCC(CC)COP(=O)(Oc1ccccc1)Oc1ccccc1` (stereo not given): 5; for `OCc1cncs1`: 5.
The same measure for `CCC=CCC(C)OC(=O)c1ccccc1O` (stereo not given): 5; for `CC1(C)S[C@@H]2[C@H](N3C(=O)C(c4ccccc4)NC3(C)C)C(=O)N2[C@H]1C(=O)O` (stereo not given in full): 5; for `CC1(C)S[C@@H]2[C@H](NC(=O)[C@H](N)c3ccccc3)C(=O)N2[C@H]1C(=O)OCOC(=O)[C@@H]1N2C(=O)C[C@H]2S(=O)(=O)C1(C)C`: 5.
The same measure for `O=C(c1ccccc1)C1(O)CCCCC1`: 5; for `CCOC(=O)C1CCC(C(=O)OCC)CC1` (stereo not given): 5; for `CCOC(=O)C(C)(C)Br`: 5.
In the case of `CCC(=O)OC/C=C(\C)CCC=C(C)C`, the GHS category was determined as 5.
The same measure for `O=c1c2cc(Oc3ccc(Cl)cc3)ccc2nnn1Cc1cccnc1`: 5; for `CCCC(=O)O[C@]1(C(=O)CO)CC[C@H]2[C@@H]3CCC4=CC(=O)CC[C@]4(C)[C@H]3[C@@H](O)C[C@@]21C`: 5; for `CCCCCCCOCCCCN1CCCCCC1=O`: 5.
The compound `O=S(=O)(O)c1ccc(/N=N/c2cc(S(=O)(=O)O)c3ccccc3c2O)c2ccccc12` showed a GHS category of 5.
In the case of `Cc1ccc(S(=O)(=O)NC(=O)Nc2cccc(OS(=O)(=O)c3ccc(C)cc3)c2)cc1` it was 5; in that of `C=CCNC(=O)Oc1cccc2c1OC(C)(C)O2`, 4.
The same measure for `CC(C)c1c(C(=O)Nc2ccccc2)c(-c2ccccc2)c(-c2ccc(F)cc2)n1CC[C@@H]1C[C@H](CC(=O)OC(C)(C)C)OC(C)(C)O1`: 5; for `N#C[Se]Cc1ccc(C[Se]C#N)cc1`: 4; for `C[C@]12C[C@@H](O)[C@H]3[C@@H](CCC4=CC(=O)CC[C@@H]43)[C@@H]1CCC2=O`: 4.
On to `CC(C)C1=CC23CCC4C(C)(C(=O)N5CCN(CCO)CC5)CCCC4(C)C2CC1C1C(=O)OC(=O)C13` (stereo not given), for which the GHS category is reported as 5.
In the case of `CCCN(CCC)c1c([N+](=O)[O-])cc(S(C)(=O)=O)cc1[N+](=O)[O-]` it was 5; in that of `Cc1ccn2nc(S(=O)(=O)Nc3c(F)cccc3F)nc2n1`, 5.
As for `CCCNC(=O)c1sc(-c2ccc(OC)cc2)nc1C`, the GHS category is given as 5.
The same measure for `Cc1ccc(C(=O)O)cc1[N+](=O)[O-]`: 5; for `CC1CCC2C(C)(C)C3CC12CC1OC13C` (stereo not given): 5; for `CCCCOC(=O)[C@@H](C)Oc1ccc(Oc2ccc(C#N)cc2F)cc1`: 5.
In the case of `CC1C(C)(C)C2=C(C3OCOCC3CC2)C1(C)C` (stereo not given) it was 5; in that of `Nc1c(I)c(C(=O)O)c(I)c(C(=O)O)c1I`, 5; in that of `O=C1NC(=O)c2ccccc21`, 5.
As to `O=C(c1ccc(OC2CCOC2)cc1)c1cc(I)ccc1Cl` (stereo not given), the GHS category came to 4.
The same measure for `C=C1CC[C@H](O)C/C1=C/C=C1\CCC[C@]2(C)[C@@H]([C@H](C)CC[C@@H](O)C(C)(C)O)CC[C@@H]12`: 2; for `COc1ccc2c(c1)CCN(c1ccccc1)C2c1ccc(OCCN2CCCC2)cc1` (stereo not given): 4; for `COC(=O)CBr`: 3.
In the case of `CC1=NN(c2ccccc2)C(=O)C1=CN1CCCCC1` it was 5; in that of `COP(=S)(OC)N(C)C(=O)Oc1cccc2c1OC(C)(C)C2`, 3; in that of `CCCC(=O)Nc1ccc(Cc2ccccn2)c([N+](=O)[O-])c1`, 4.
The same measure for `CCc1cc(Cc2cc(CC)cc(C(C)(C)C)c2O)c(O)c(C(C)(C)C)c1`: 5.
`O=C(O)CCCCCCCCCCC(=O)O` registered a GHS category of 5.
The same measure for `CC1(C)CCC(=Cc2ccc(Cl)cc2)C1(O)Cn1cncn1` (stereo not given): 5.
In the case of `CCCCCCCCC=CCCCCCCCC(=O)OC(C)C` it was 5; in that of `C=CCSc1nc(N)c2c(C)coc2n1`, 5; in that of `CCOC(=O)c1ccnc(C(=O)OCC)c1`, 5.
In the case of `CN[C@@H]1[C@H](O)[C@H](NC)[C@H]2O[C@@]3(O)C(=O)C[C@@H](C)O[C@H]3O[C@@H]2[C@H]1O` it was 5.
With `CCC(C(=O)NC(=O)NC(C)=O)c1ccccc1` (stereo not given), the GHS category stood at 5.
The same measure for `CCOC(=O)C(F)(F)F`: 5; for `CC(=O)OCOC(=O)C1=C(COC(N)=O)SC2C(C(C)O)C(=O)N12` (stereo not given): 5.
In the case of `O=C1CCCCCCCCCOCCCCCO1` it was 5; in that of `COc1ccc(Cl)cc1N/C(=N/C1CCCCC1)c1ccccc1C`, 4; in that of `O=C1NCCCN1`, 5.
The same measure for `Clc1ccc(I)cc1Cc1ccc(OC2CCOC2)cc1` (stereo not given): 5.
Turning to `CC(=O)OCC(=O)[C@@]12OC3(CCCC3)O[C@@H]1C[C@H]1[C@@H]3CCC4=CC(=O)C=C[C@]4(C)[C@@]3(F)[C@@H](O)C[C@@]12C`, the GHS category was determined as 5.
The same measure for `CCCCCCCCCCCC1CC(O)=C(CCCCCC)C(=O)O1` (stereo not given): 5.
In the case of `CC1CC(OC(=O)COc2ccc(F)cc2)CC(C)(C)C1` (stereo not given) it was 5; in that of `CCNC(=O)[C@@H]1CCCN1C(=O)[C@H](CCCN=C(N)N)NC(=O)[C@H](CC(C)C)NC(=O)[C@@H](COC(C)(C)C)NC(=O)[C@H](Cc1ccc(O)cc1)NC(=O)[C@H](CO)NC(=O)[C@H](Cc1c[nH]c2ccccc12)NC(=O)[C@H](Cc1cnc[nH]1)NC(=O)[C@@H]1CCC(=O)N1`, 4; in that of `CC(C)CCC1CCC(O)CC1` (stereo not given), 5.
The same measure for `NS(=O)(=O)c1cc2c(cc1Cl)N=C(CSCc1ccccc1)NS2(=O)=O`: 5; for `CCCCCCCCCCCCCC`: 5; for `CCCc1nc2ccnn2c(NCCN2CCCC2)c1Cc1ccc(-c2ccccc2-c2nn[nH]n2)cc1`: 4.
On to `CC12CCC(O)C=C1C(O)CC1(O)C2CCC2(C)C(c3ccc(=O)oc3)CCC21O` (stereo not given), for which the GHS category is reported as 2.
As to `C/C=C(\C)C(=O)OCC/C=C\CC`, the GHS category is on record as 5.
In the case of `O=[N+]([O-])c1ccc2c(c1)COP(=S)(NC1CCCCC1)O2` (stereo not given) it was 3; in that of `CCCCOC(=O)Nc1nc(N2CC=CCC2)cc2nc(=O)on12`, 5.
`Nc1ccc(C(=O)c2ccccc2)cc1O` displayed a GHS category of 5.
In turn, `Clc1cc(Cl)c(OCC#CI)cc1Cl` displayed a GHS category of 5.
The same measure for `CC(C)(C)CC(C)(C)c1ccc(O)c(Cc2ccc(Cl)cc2Cl)c1`: 5; for `CCOC(=O)C1=C(COCCN2C(=O)c3ccccc3C2=O)NC(C)=C(C(=O)OC)C1c1ccccc1Cl` (stereo not given): 5; for `CC(C)=CCOc1ccc(/C=C/C(=O)c2ccc(OCC=C(C)C)cc2OCC(=O)O)cc1`: 5.
As for `CCCCCC1COCCC1OC(C)=O` (stereo not given), the GHS category came out at 5.
The same measure for `CCCCCC(=Cc1ccccc1)C(OCC)OCC`: 5; for `C=C[Si](C)(C)O[Si](C)(C)C=C`: 5; for `CCC1COC(Cn2cncn2)(c2cc3cc(Cl)ccc3o2)O1` (stereo not given): 4.
In the case of `C=C(C)C1CCC(C)=C1CC(C)(C)COC(=O)CC` (stereo not given) it was 5; in that of `O=C1CCc2c(OCC(O)CN3CCC(Cc4ccccc4)CC3)ccc(Br)c2N1` (stereo not given), 4.
Regarding `CCCC1CCC(=O)O1` (stereo not given), the GHS category amounted to 5.
In the case of `CC(=O)Oc1ccc(C(c2ccc(OS(=O)(=O)O)cc2)c2ccccn2)cc1` (stereo not given) it was 5; in that of `FC(F)(Cl)Cl`, 4.
In the case of `CC(C)CCCCCCCOP(=O)(Oc1ccccc1)Oc1ccccc1` it was 5.
In the case of `CCCCCCCCC(=O)OCC(CC)(COC(=O)CCCCCCCC)COC(=O)CCCCCCCC` it was 5; in that of `C#CCNC(=O)Oc1cccc2c1OC(C)(C)O2`, 3; in that of `Nc1ccc(F)cc1-c1ccc(Cl)c(Cl)c1`, 5.
As to `COC(=O)c1ccc(C(=O)Nc2cc(Cl)ccc2Cl)cc1[N+](=O)[O-]`, the GHS category was 4.
Regarding `CCCCn1cc2c3c(cccc31)[C@@]1(OC)C[C@@H](COC(=O)c3cncc(Br)c3)CN(C)[C@@H]1C2`, the GHS category was 4.
In the case of `Cc1ccc2c(-c3ccc(F)cc3)nc(=O)n(C(C)C)c2c1` it was 5; in that of `CCCCOC(=O)C(=O)[C@H]1[C@H](C)C[C@H]2[C@@H]3C[C@H](F)C4=CC(=O)C=C[C@]4(C)[C@H]3[C@@H](O)C[C@@]21C`, 5; in that of `CCCNC(=O)C(Cc1ccc(OCCN(CC)CC)cc1)NC(=O)c1ccccc1` (stereo not given), 4.
Consider `CCCCCCCCCCCCCC(=O)OC(C)C`, for which the GHS category came to 5.
The same measure for `CCCCCCCCCCCCC`: 5.
The same measure for `CCCCCCCCCCCCCCCCCC(=O)OCCOCCO`: 5.
